Measured values published in patent publication US20220313702A1, “OXATHIAZIN COMPOUNDS FOR INHIBITING GAPDH” (Geistlich Pharma AG, priority 2019, published 2022).
Read-outs that look alike come from different tables or passages of the source.

How the values were obtained:
[1] = test system: Bo80 pancreatic primary cancer cell line
Method: (§10) Controls corresponded to cells cultured for 8 weeks without drug treatment (dark columns).
(§11) Secondary resistance to 2250 was tested to imitate the repetitive bolus administration of the drug over a period of up to 8 weeks. Gemcitabine was used as comparator drug. A potential secondary resistance was expected to manifest itself in a decreased ability of either drug to impair cell viability. The study was performed with 3 pancreatic tumor cell lines, AsPC-1, PancTul and Bo80, the latter being a primary cell line derived from a pancreatic cancer patient. The cells were treated once a week for 24 hours with 2250 or gemcitabine at a dose which destroyed 80-90% of the cells. Subsequently, the media were exchanged and the cells were allowed to regrow in the absence of drug for 6 days.
(§12) This weekly treatment cycle of cell killing and regrowth was repeated for both drugs for 4 weeks, 6 weeks and 8 weeks. Untreated cultures of 4, 6 and 8 weeks were used as controls. Cell viability was tested with the BrdU assay or the MTT assay at 2 hour, 24 hour, and 6 days in every treatment cycle for 4, 6 and 8 weeks.

[2] = test system: BxPC3 pancreatic cancer cell line; test: fluorescent ROS detection assay, BxPC3; assay type: cell-based
Method: (§1) FIG. 2: Formation of ROS: The effect of treatment with the indicated concentrations of GP-2250 on the formation of ROS was tested in two pancreatic cancer cell lines a) PancTul and b) BxPC3, using a fluorescent ROS detection assay (ROS/Superoxide Detection Assay Kit, Abcam (ab139476)) following incubation with GP-2250 for 90 min at 37° C. Negative controls (NC+NAC) contained the ROS inhibitor which is part of the Assay Kit plus N-acetylcysteine (NAC; 5 mM). Untreated control (U). Data are presented as mean+/−S.D. Significance levels calculated in comparison to untreated controls (U). * p<0.05, ** p<0.01, *** p<0.001.
(§2) The effects of treatment with various concentrations of GP-2250 on the formation of ROS was tested in two pancreatic cancer cell lines a) PancTul and b) BxPC3 as shown in FIG. 2. […] The BxPC3 cell line was more sensitive to forming ROS than Panc Tul. The rather high concentrations of GP-2250 which are required for the formation of ROS (equal or higher than 500 uM) are most likely due to the short incubation time of 90 minutes in this cellular assay. A higher potency of GP-2250 would be expected at longer incubation times.
(§3) Untreated control (U). Data are presented as mean+/−S.D. Significance levels calculated in comparison to untreated controls (U). * p<0.05, ** p<0.01, *** p<0.001.

[3] = test system: AsPC-1 pancreatic cancer cell line
Method: (§13) Following 4 weekly cycles of cytotoxic treatment and regrowth (see text), the cytotoxic potency of GP-2250 (FIG. 8A) and of gemcitabine (FIG. 8B) was tested with the BrdU and MTT assay respectively in the AsPC-1 pancreatic cancer cell line (light columns). Controls corresponded to cells cultured for 4 weeks without drug treatment (dark columns).
as §11, §12

BxPC3 cell line [4] = test: ATP luminescent detection kit, BxPC3; assay type: cell-based
Method: (§4) FIG. 4: Decrease of ATP in BxPC3 cell line: Effect of treatment with the indicated concentrations of GP-2250 on the amount of ATP (dark column) in comparison to the cell viability (light column) after a) 3 h, b) 6 h and c) 24 h incubation at 37° C. The strong decrease of ATP reflects the impairment of the energy metabolism by GP-2250. The decrease of ATP precedes the decrease in cell viability and is therefore not caused by the impairment of cell viability. ATP was measured with a luminescent detection kit (Abcam ab113849), cell viability with the MTT test (Sigma M5655). Data are given as % change versus untreated control (NC), presented as mean+/−S.D. Significance levels in comparison to NC. * p<0.05, ** p<0.01, ***p<0.001.
(§5) The level of ATP in a tumor cell is taken as a measure of the impact of GP-2250 on its energy metabolism. […] The decrease of ATP is already apparent after 3 h with PancTul and at 6 h with the less sensitive BxPC3 at 250 uM. It is this concentration which causes partial inhibition of GAPD (FIG. 1) and thereby links GAPD inhibition to the decrease of ATP, which in itself is a sufficient signal for the induction of apoptosis. […]
(§6) The strong decrease of ATP reflects the impairment of the energy metabolism by GP-2250. […] ATP was measured with a luminescent detection kit (Abcam ab113849), cell viability with the MTT test (Sigma M5655). […]

[5] = test system: PancTul pancreatic cancer cell line; test: test of secondary resistance, PancTul; assay type: cell-based; conditions: 6 weekly treatment cycles, BrdU assay
Description: FIG. 9: Test of secondary resistance.
Gemcitabine was used as comparator drug.

[6] = test system: primary cell line derived from human pancreatic cancer (Bo80); test: cell viability MTT assay, Bo80 primary pancreatic cancer cells; assay type: cell-based; conditions: 24 h at 37° C.
Method: FIG. 6: Synergy between GP-2250 and Gemcitabine: Cell viability was tested in a primary cell line derived from human pancreatic cancer (Bo80). […] When combined, a striking synergy was observed. The number of viable cells was reduced by 70-75%. Cell viability was tested colorimetically using the MTT assay. […] Reduction of chemotherapy drug-related toxicity can be achieved in vitro using the combinations with GP-2250 while maintaining high efficacy. The combination of GP-2250 with gemcitabine was therefore tested in mouse models of patient-derived xenografts to assess the therapeutic potential of this drug combination in vivo (see FIGS. 12-15; FIG. 18). […] When combined, a striking synergy was observed. The number of viable cells was reduced by 70-75%. Cell viability was tested colorimetically using the MTT assay.

Bax = test: Western blot of Bax expression in PancTul cells; assay type: cell-based; conditions: 200 μM, 0 h, 6 h, 12 h and 24 h, α-tubulin as control
Method: (§7) FIG. 5: Regulation of oncoproteins Bax and Bcl-2 expression: Effect of treatment with 200 μM GP-2250 for 0 h, 6 h, 12 h and 24 h on the expression of the oncoproteins a) Bax and b) Bcl-2 was tested in PancTul cells by Western blots with α-tubulin as control. The expression of the pro-apoptotic protein Bax was increased whereas the expression of the anti-apoptotic Bcl-2 was decreased over time of incubation with GP-2250.
(§8) Apoptotic pathways are triggered by a decrease of ATP or an increase of ROS. They result in a shift of the equilibrium between the pro-apoptotic (death) protein Bax and the anti-apoptotic (survival) protein Bcl-2. The mitochondria are destabilized and the apoptotic caspase cascade finalizes the apoptotic cell suicide. GP-2250 (200 μM) increased the expression of Bax and decrease the expression of BCl-2 with increasing incubation times as shown in the Western blots (FIG. 5). […] In addition, the concentration of GP-2250 which is sufficient to change the Bax/Bcl-2 ratio (200 uM) corresponds to that for partial GAPDH inhibition (250 uM) (FIG. 1). This finding links GAPDH inhibition to the induction of apoptosis.
(§9) The expression of the pro-apoptotic protein Bax was increased whereas the expression of the anti-apoptotic Bcl-2 was decreased over time of incubation with GP-2250.

[7] = molecular target: recombinant GAPDH (rGAPDH) (Homo sapiens, UniProt P04406); test: Glyceraldehyde-3-phosphate Dehydrogenase Activity Assay Kit with recombinant GAPDH; assay type: biochemical
Method: FIG. 1: Inhibition of GAPDH enzyme activity: Effect of treatment with GP-2250 (100 uM and 250 uM) on the activity of recombinant GAPDH (rGAPDH) was tested with the Glyceraldehyde-3-phosphate Dehydrogenase Activity Assay Kit (Abcam ab204732) following incubation for up to 60 min at 37° C. The rGAPDH activity is inhibited dose- and time-dependently by 100 uM and 250 uM GP-2250 up to 40% compared to the untreated control. […] The GP-2250 curves are the measured data, not normalized to controls. Data are presented as mean+/−S.D.
The incubation time may be critical as it is a cell-free assay. Specific doses required for a half-maximal or full inhibition of GAPDH are tested in vitro and in vivo in rodents. These in vitro and in vivo data provide a target-related measure of the dose required to inhibit the GAPDH in tissue, e.g., cancer tissue, to various degrees, which is a more direct measure of the impact of the compounds of the present disclosure in contrast to cellular assays such as induction of apoptosis or ROS production.
GAPDH is the rate limiting glycolytic enzyme in cells operating under conditions of aerobic glycolysis, such as tumor cells. Partial inhibition is therefore expected to impair the energy metabolism of tumor cells. This is in contrast to normal cells. […] The GP-2250 curves are the measured data, not normalized to controls. […]

[8] = test system: Chemotherapy-resistant stem cells from advanced Stage 3 and 4 pancreatic cancer human patients; test: chemotherapy-resistant stem cells from pancreatic cancer patients; assay type: cell-based; conditions: several concentrations
BxPC3 cell line [9] = test: cell viability MTT test, BxPC3; assay type: cell-based
Method: as §4
as §4, with “The” for “FIG. 4: Decrease of ATP in BxPC3 cell line: Effect of treatment with the indicated concentrations of GP-2250 on the amount of ATP (dark column) in comparison to the cell viability (light column) after a) 3 h, b) 6 h and c) 24 h incubation at 37° C. The”

[10] = test system: PancTul pancreatic cancer cell line; test: fluorescent ROS detection assay, PancTul; assay type: cell-based
Method: as §1, §2, §3

[11] = test system: neuroendocrine cell line QGP-1
Method: (§14) Neuroendocrine tumors were tested in vitro using the neuroendocrine cell line QGP-1 and in vivo using mouse models with a QGP-1 cell xenograft and a Bo99 patient-derived pancreatic cancer tissue graft.

PancTul cell line [12] = test: ATP luminescent detection kit, PancTul; assay type: cell-based
Method: as §4, with “3:” for “4:”, “PancTul” for “BxPC3”
as §5, §6

Bcl-2 = test: Western blot of Bcl-2 expression in PancTul cells; assay type: cell-based; conditions: 200 μM, 0 h, 6 h, 12 h and 24 h, α-tubulin as control
Method: as §7, §8, §9

PancTul cell line [13] = test: cell viability MTT test, PancTul; assay type: cell-based
Method: as §4, with “3:” for “4:”, “PancTul” for “BxPC3”
as §4, with “The” for “FIG. 4: Decrease of ATP in BxPC3 cell line: Effect of treatment with the indicated concentrations of GP-2250 on the amount of ATP (dark column) in comparison to the cell viability (light column) after a) 3 h, b) 6 h and c) 24 h incubation at 37° C. The”

[14] = test system: Bo80 pancreatic primary cancer cell line; test: test of secondary resistance, Bo80; conditions: Bo80, 8 weekly treatment cycles, BrdU assay, vs untreated 8-week cultures
Method: as §10, §11, §12

[15] = test system: AsPC-1 pancreatic cancer cell line; test: test of secondary resistance, AsPC-1; conditions: AsPC-1, 4 weekly treatment cycles, MTT assay, vs untreated 4-week cultures
Method: as §13, §11, §12

[16] = test system: neuroendocrine cell line QGP-1; test: QGP-1 tumor cell viability in vitro
Method: as §14

GAPDH = GAPDH (Homo sapiens, UniProt P04406); test: interactions with GAPDH (covalent labeling); assay type: biochemical
Method: Various oxathiazine-like compounds of the present disclosure are synthesized and are assayed for interactions with GAPDH. Isethionic acid amide and methylene glycol were identified as hydrolytic products. A reactive transient reactive intermediate is isethionic acid hydroxymethylamide. […] The covalently labeled enzyme is purified and reactive intermediates are identified using various analytical methods including mass spectrometry of the labeled peptide is elucidated.

Sequence of recombinant GAPDH (rGAPDH) (P04406 whole entry): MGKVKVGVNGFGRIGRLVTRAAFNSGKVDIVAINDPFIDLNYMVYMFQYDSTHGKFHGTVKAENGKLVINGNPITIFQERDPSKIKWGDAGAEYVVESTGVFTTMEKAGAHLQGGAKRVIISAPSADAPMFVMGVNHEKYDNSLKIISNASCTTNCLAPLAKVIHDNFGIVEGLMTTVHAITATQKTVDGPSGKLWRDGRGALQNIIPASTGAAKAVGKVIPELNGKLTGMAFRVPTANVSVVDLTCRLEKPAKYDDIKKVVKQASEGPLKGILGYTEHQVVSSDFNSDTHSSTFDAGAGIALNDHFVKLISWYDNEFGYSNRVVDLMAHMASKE
Sequence of GAPDH (P04406 whole entry): as above

In the case of `O=S1(=O)CCOCN1` [GP-2250, Tetrahydro1,4,5-oxathiazin-4-dioxide], the “cytotoxic potency after repeated treatment (secondary resistance)” value (from here on “cytotoxic potency”) [1] was “remained unchanged”, the “increase of ROS” value ([2]; BxPC3, 90 min at 37° C.) was “concentration dependent” and the “concentrations required for the formation of ROS” value ([2]; BxPC3, incubation time of 90 minutes) was ≥ 500 µM. The “cytotoxic potency” value [3] was “remained unchanged”, the “incubation time at which decrease of ATP is apparent” value (BxPC3 cell line [4]; BxPC3, 250 uM) was 6 h and the ATP amount (BxPC3 cell line [4]; BxPC3, 3 h, 6 h, 24 h at 37° C.) was “decreases depending on the concentration of GP-2250 and the incubation time”. For the same compound, the “cytotoxic potency” value [5] was “remained unchanged”, the “cell viability, drug alone” value ([6]; GP-2250 200 uM) was “inactive per se” and the “expression of Bax” value (Bax) was “increased”. The “inhibition of rGAPDH activity” value ([7]; 100 uM and 250 uM GP-2250, incubation up to 60 min at 37° C., compared to untreated control, dose- and time-dependent) was “up to 40%”, the “inhibition of recombinant GAPDH” value ([7]; cell-free assay) was “directly inhibited” and the “effect on chemotherapy-resistant stem cells” value [8] was “some effect at higher concentrations”. For the same compound, the “impairment of cell viability (MTT) relative to ATP decrease” value (BxPC3 cell line [9]) was “required higher concentrations than those required to decrease ATP”, the “increase of ROS” value ([10]; 90 min at 37° C.) was “concentration dependent” and the “concentrations required for the formation of ROS” value ([10]; incubation time of 90 minutes) was ≥ 500 µM. For the same compound, the “cytotoxic effect in QGP-1 cells, monotherapy” value [11] was “concentration-dependent cytotoxic effect”, the “incubation time at which decrease of ATP is apparent” value (PancTul cell line [12]; 250 uM) was 3 h and the ATP amount (PancTul cell line [12]; 3 h, 6 h, 24 h at 37° C.) was “decreases depending on the concentration of GP-2250 and the incubation time”. For the same compound, the “expression of Bcl-2” value (Bcl-2) was “decreased” and the “impairment of cell viability (MTT) relative to ATP decrease” value (PancTul cell line [13]) was “required higher concentrations than those required to decrease ATP”.

For `Nc1ccn([C@@H]2O[C@H](CO)[C@@H](O)C2(F)F)c(=O)n1` [gemcitabine], the “cytotoxic potency” value [14] was “reduced cytotoxic potency”, the “cytotoxic potency” value [15] was “reduced cytotoxic potency” and the “cytotoxic effect in QGP-1 cells, monotherapy” value [16] was “concentration-dependent cytotoxic effect”. For the same compound, the “cell viability, drug alone” value ([6]; Gemcitabine 100 uM or 1000 uM) was “inactive per se” and the “effect on chemotherapy-resistant stem cells” value [8] was “minimal effect at all tested concentrations”.

`O=S(=O)(CCO)NCO` [isethionic acid hydroxymethylamide] was tested, and the “interaction with the reactive cysteine-SH in the active center of GAPDH” value (GAPDH) was “inactivates the enzyme”.
